# In PubChem BioAssay (NCI):
#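 48-hour exposure; five concentrations; linearly interpolated endpoints. TGI: concentration producing complete growth inhibition.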
# What was measured:
# Test in all cases: NCI-60 cell line screen, 48 h
# [1] = test system: HL-60(TB) leukemia
# [2] = test system: CCRF-CEM leukemia
# [3] = test system: OVCAR-8 ovarian
# [4] = test system: LOX IMVI melanoma
# [5] = test system: PC-3 prostate
# [6] = test system: SNB-75 CNS
# [7] = test system: OVCAR-5 ovarian
# [8] = test system: SK-MEL-2 melanoma
# [9] = test system: MDA-N
# [10] = test system: NCI/ADR-RES ovarian
# [11] = test system: SW-620 colon
# [12] = test system: SF-539 CNS
# [13] = test system: NCI-H460 lung
# [14] = test system: A549 NSCLC
# [15] = test system: T-47D breast
# [16] = test system: HS 578T breast
# [17] = test system: HCT-116 colon
# [18] = test system: NCI-H226 lung
# [19] = test system: RPMI-8226 leukemia
# [20] = test system: TK-10 renal
# [21] = test system: HOP-92 NSCLC
# [22] = test system: SNB-19 CNS
# [23] = test system: SF-268 CNS
# [24] = test system: MDA-MB-435
# [25] = test system: NCI-H23 lung
# [26] = test system: HCC-2998 colon
# [27] = test system: ACHN renal
# [28] = test system: MCF7 breast
# [29] = test system: U251 CNS
# [30] = test system: SR leukemia
# [31] = test system: DU-145 prostate
# [32] = test system: HCT-15 colon
# [33] = test system: COLO 205 colon
# [34] = test system: IGROV1 ovarian
# [35] = test system: MDA-MB-231 breast
# [36] = test system: K-562 leukemia
# [37] = test system: HOP-62 NSCLC
# [38] = test system: A498 renal
# [39] = test system: UACC-62 melanoma
# [40] = test system: EKVX NSCLC
# [41] = test system: M14 melanoma
# [42] = test system: SK-OV-3 ovarian
# [43] = test system: SK-MEL-28 melanoma
# [44] = test system: SK-MEL-5 melanoma
# [45] = test system: UO-31 renal
# [46] = test system: 786-0 renal
# [47] = test system: SN12C renal
# [48] = test system: KM12 colon
# [49] = test system: UACC-257 melanoma
# [50] = test system: OVCAR-3 ovarian
# [51] = test system: HT29 colon
# [52] = test system: MOLT-4 leukemia
# [53] = test system: OVCAR-4 ovarian
# [54] = test system: CAKI-1 renal
# [55] = test system: BT-549 breast
# [56] = test system: SF-295 CNS
compound,measurement,setting,value
O=C1OC(c2ccccc2)N(C(=O)c2ccccc2)C1Cc1ccc(OCc2ccccc2)cc1 (centres undefined),TGI,[1],> 100 µM
same,TGI,[2],> 100 µM
same,TGI,[3],> 100 µM
same,TGI,[4],> 100 µM
same,TGI,[5],> 100 µM
same,TGI,[6],> 100 µM
same,TGI,[7],> 100 µM
same,TGI,[8],> 100 µM
same,TGI,[9],> 100 µM
same,TGI,[10],> 100 µM
same,TGI,[11],> 100 µM
same,TGI,[12],> 100 µM
same,TGI,[13],> 100 µM
same,TGI,[14],> 100 µM
same,TGI,[15],> 100 µM
same,TGI,[16],> 100 µM
same,TGI,[17],> 100 µM
same,TGI,[18],> 100 µM
same,TGI,[19],> 100 µM
same,TGI,[20],> 100 µM
same,TGI,[21],53.4 µM
same,TGI,[22],> 100 µM
same,TGI,[23],> 100 µM
same,TGI,[24],> 100 µM
same,TGI,[25],> 100 µM
same,TGI,[26],> 100 µM
same,TGI,[27],> 100 µM
same,TGI,[28],62.3 µM
same,TGI,[29],> 100 µM
same,TGI,[30],> 100 µM
same,TGI,[31],> 100 µM
same,TGI,[32],> 100 µM
same,TGI,[33],> 100 µM
same,TGI,[34],> 100 µM
same,TGI,[35],23.9 µM
same,TGI,[36],> 100 µM
same,TGI,[37],> 100 µM
same,TGI,[38],33.5 µM
same,TGI,[39],> 100 µM
same,TGI,[40],> 100 µM
same,TGI,[41],> 100 µM
same,TGI,[42],> 100 µM
same,TGI,[43],> 100 µM
same,TGI,[44],> 100 µM
same,TGI,[45],> 100 µM
same,TGI,[46],> 100 µM
same,TGI,[47],> 100 µM
O=C1/C(=C/c2cccc([N+](=O)[O-])c2)Sc2scc(-c3ccc([N+](=O)[O-])cc3)[n+]21,TGI,[3],> 100 µM
same,TGI,[4],46.3 µM
same,TGI,[48],33.3 µM
same,TGI,[5],> 100 µM
same,TGI,[49],69.8 µM
same,TGI,[6],32.1 µM
same,TGI,[7],51.2 µM
same,TGI,[50],> 100 µM
same,TGI,[8],70 µM
same,TGI,[9],> 100 µM
same,TGI,[10],89.2 µM
same,TGI,[11],> 100 µM
same,TGI,[12],> 100 µM
same,TGI,[13],24.6 µM
same,TGI,[14],> 100 µM
same,TGI,[15],> 100 µM
same,TGI,[17],34.9 µM
same,TGI,[18],> 100 µM
same,TGI,[51],38.8 µM
same,TGI,[21],72.3 µM
same,TGI,[22],46.1 µM
same,TGI,[24],37.5 µM
same,TGI,[25],35.5 µM
same,TGI,[26],29.9 µM
same,TGI,[27],49.9 µM
same,TGI,[28],> 100 µM
same,TGI,[29],> 100 µM
same,TGI,[52],> 100 µM
same,TGI,[31],> 100 µM
same,TGI,[32],33.6 µM
same,TGI,[33],> 100 µM
same,TGI,[53],> 100 µM
same,TGI,[34],53.6 µM
same,TGI,[35],72.5 µM
same,TGI,[37],38.3 µM
same,TGI,[54],51.5 µM
same,TGI,[39],48.5 µM
same,TGI,[40],61.1 µM
same,TGI,[41],> 100 µM
same,TGI,[55],28.8 µM
same,TGI,[42],90.5 µM
same,TGI,[43],62.3 µM
same,TGI,[44],> 100 µM
same,TGI,[56],53.6 µM
same,TGI,[45],24.1 µM
same,TGI,[46],38.3 µM
same,TGI,[47],40.9 µM
